{"source": "paper PMC4725915", "about": "“Ruthenium(II) Complexes with 2-Phenylimidazo[4,5-f][1,10]phenanthroline Derivatives that Strongly Combat Cisplatin-Resistant Tumor Cells” (Scientific Reports, 2016)", "key": {"[1]": {"test_system": "A549R MCTSs", "assay": "Growth inhibition of drug-treated MCTSs (size by imaging)", "assay_type": "cell-based, human", "conditions": "1.0 and 2.0 μM", "source_text": "Traditional research on the efficacy of cancer drugs is usually performed in two-dimensional (2-D) cell cultures, which may not be a true indicator of the in vivo effectiveness of cancer treatments. This is in part due to the absence of cell-cell or cell-extracellular matrix interactions in 2-D cell models. Therefore, the development of cell culture models that can close the gap between conventional 2-D cell experiments and animal studies is necessary to study the cytotoxicity and anti-proliferative activities of drugs. Multicellular tumor spheroids (MCTSs) are heterogeneous cellular aggregates that have properties of solid tumors, such as nutrient and oxygen gradients, hypoxic/necrotic regions, cell-cell matrix interactions, and gene expression.\nMCTSs were cultured using the liquid overlay method. A549R cells in the exponential growth phase were dissociated by a trypsin/EDTA solution to gain single-cell suspensions. A number of 3000 diluted A549R cells were transferred to 1.5% agarose-coated transparent 96-well plates with 200 μL of DMEM containing 10% serum. The single cells formed MCTS aggregates approximately 400 μm in diameter after three days with 5% CO2 and 20% O2 at 37 °C. […]"}, "[2]": {"test_system": "A549R cells", "assay": "Cell cycle analysis (PI, FACS)", "assay_type": "cell-based, human", "conditions": "24 h", "protocol": "Cell proliferation is activated under pathological conditions and plays a crucial role in cancer cell regeneration. Deregulated cell-cycle control is a fundamental aspect of cancer and the process is related to the proliferation and death of cancer cells. Therefore, the effect of cyclometalated complex 4 on cell cycles was investigated using fluorescence-activated cell sorting (FACS) analysis of the DNA content. […] A higher dose of complex 4 (2.0 μM) elicited a strong G2/M arrest of A549R cells, accounting for 46% of the cell population (control, 12.82%). The enrichment of the G2/M phase of the cell cycle of A549R cells may have led to their apoptosis by disrupting the cell cycle.\nA549R cells were treated with different concentrations of complex 4 (i.e., 0.5, 1.0 and 2.0 μM) for 24 h. The cells were collected and fixed in 2 mL of 70% cold aqueous ethanol (v/v). After incubation, the cells were centrifuged and washed three times with cold PBS and resuspended in 0.5 mL of PBS. To a 0.5 mL cell sample, […] of RNase A (1 mg/mL in PBS) was added and incubated for 30 min at 37 °C; then, […] of a PI ([…] in PBS) solution was added after gentle mixing for 5 min at 37 °C in the dark. The samples were resuspended and 10,000 cells were analyzed for each sample by a BD FACS Calibur cytometer (Becton Dickinson, Heidelberg, Germany). The data were acquired and analyzed with ModFit LT 3.2."}, "[3]": {"test_system": "A549R cells", "assay": "AO/EB staining apoptosis assay", "assay_type": "cell-based, human", "conditions": "0.50–2.0 μM", "source_text": "Cell apoptosis is a naturally occurring, programmed and targeted cellular death mechanism that is very complex and is regulated by some proteins. This process is also greatly affected by extrinsic conditions. Therefore, it is important to study the influence of drug-induced cellular apoptosis. Firstly, the induction of A549R cell apoptosis by complex 4 was investigated by apoptosis assays using AO/EB staining and fluorescence microscopy. […] Necrotic cells are stained in red but have nuclear morphologies that resemble those of viable cells."}, "[4]": {"test_system": "LO2", "assay": "MTT cytotoxicity assay, normal LO2 cells", "assay_type": "cell-based", "conditions": "LO2 normal human cell line, 48 h", "protocol": "(§1) Compounds 1–4 were evaluated against three tumor cell lines derived from different tissues, including the cervix (HeLa), lung (A549) and cisplatin-resistant lung (A549R) tissues. For comparison, the cytotoxicity of cisplatin was also evaluated. As a control, the toxicities of the complexes were also tested against the normal human cell line (LO2).\nThe human cervix carcinoma cell line (HeLa), the lung carcinoma cell lines (A549 and A549R), and the human hepatocyte cell line (LO2) were obtained from the Experimental Animal Center at Sun Yat-Sen University (Guangzhou, China). The cells were maintained in Dulbecco’s modified Eagle’s medium (DMEM, Gibco BRL) or Roswell Park Memorial Institute 1640 (RPMI 1640, Gibco BRL) medium supplemented with 10% fetal bovine serum (FBS, Gibco BRL), 100 μg/mL streptomycin, and 100 U/mL penicillin (Gibco BRL) in a humidified incubator under 5% CO2 and 20% O2 at 37 °C. To maintain the resistant phenotype, A549R cells were incubated with 5 μM cisplatin and cultured in drug-free medium for at least a week before use.\n(§2) The cytotoxicity of the ruthenium complexes and cisplatin were determined by an MTT assay. Briefly, cells were seeded into 96-well microtiter plates at 1 × 10^4 cells per well and grown overnight at 37 °C in a 5% CO2 incubator; then, different concentrations of the complexes in cell culture medium were added to the cultures. The plates were then incubated in an incubator for 48 h under the same conditions. The stock MTT dye solution (15 μL, 5 mg/mL) was added to each well. After 4 h of incubation, the cultures were removed and 150 μL of DMSO was added to each well. The optical density of each well was measured on a microplate spectrophotometer at a wavelength of 595 nm."}, "[5]": {"test_system": "cancer cell lines (HeLa, A549, A549R)", "assay": "MTT cytotoxicity, all tested cancer cell lines taken together", "assay_type": "cell-based, human", "conditions": "48 h, read-out: IC50 toward all the tested cancer cell lines", "protocol": "as §1, §2"}, "[6]": {"test_system": "A549R MCTSs", "assay": "Cytotoxicity test on 3D MCTSs (Cell TiterGlo ATP)", "assay_type": "cell-based, human", "conditions": "A549R MCTSs (~400 μm in diameter), 48 h", "protocol": "MCTSs were cultured using the liquid overlay method. A549R cells in the exponential growth phase were dissociated by a trypsin/EDTA solution to gain single-cell suspensions. A number of 3000 diluted A549R cells were transferred to 1.5% agarose-coated transparent 96-well plates with 200 μL of DMEM containing 10% serum. The single cells formed MCTS aggregates approximately 400 μm in diameter after three days with 5% CO2 and 20% O2 at 37 °C. After formation of the MCTSs, each MCTS in a 96-well plate was imaged with a phase contrast microscope (Zeiss Axio Observer D1, Germany) using 10× objective to monitor their color, integrity, diameter, and volume.\nA549R MCTSs (diameters ≈400 μm) were treated by carefully replacing 50% of the medium with drug-supplemented standard medium using an eight-channel pipet. In parallel, 50% of the medium containing solvent was replaced with solvent-free medium for the untreated MCTSs. Three A549R MCTSs were treated per condition and drug concentration; the DMSO volume was less than 1% (v/v). The MCTSs were then allowed to incubate for another 48 h. The cytotoxicities of the Ru(II) complexes toward the MCTSs were measured using ATP concentrations with a Cell TiterGlo kit (Promega). After 30 min of incubation, the MCTSs were carefully transferred into black-sided, flat-bottomed 96-well plates (Corning) and mixed with a pipet for luminescence measurements on an Infinite M200 PRO instrument (TECAN)."}}}
{"substance": "Ru(phen)(bzq)(tbtfpip)(PF6) [Complex 4]", "values": [{"measurement": "change in size of A549R MCTSs", "setting": "[1]", "result": "decreased in size over time"}, {"measurement": "G2/M share of the cell population", "setting": "[2]; 2.0 μM, control 12.82%", "result": 46, "unit": "%"}, {"measurement": "percentage of cells in the G0/G1 phase", "setting": "[2]; control 68.46", "result": 30.87, "unit": "%"}, {"measurement": "AO/EB staining result", "setting": "[3]", "result": "predominantly induced apoptosis"}, {"measurement": "IC50", "setting": "[4]", "result": "6.7 ± 2.4", "unit": "µM"}, {"measurement": "IC50", "setting": "[5]", "result": "0.8 to 2.4", "unit": "µM"}, {"measurement": "IC50", "setting": "[6]", "result": "1.8 ± 0.3", "unit": "µM"}]}
